# Reference: patent US10774051B2, “6-membered heterocyclic derivatives and pharmaceutical composition comprising the same” (Shionogi & Co., Ltd., priority 2015, dated 2020)
# Target: human P2X7 receptor (Homo sapiens, UniProt Q99572, R270H/Y155H)
# Test: Evaluation of human P2X7 receptor inhibitory activity (Yo-Pro uptake, BzATP stimulation, FLIPR TETRA)
# Format: cell-based
# Conditions: 1321N1 cells stably expressing human P2X7 receptor; BzATP stimulation, Yo-Pro uptake; read-out: IC50 (antagonistic activity for the human P2X7 receptor)
# Procedure, shortened: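 Yo-Pro dye uptake triggered by BzATP was monitored by FLIPR in human P2X7-transfected 1321N1 cells (SNP variant) in HEPES-buffered HBSS, pH 7.4-7.5. Compound was dispensed 8 min post-stimulation, then signal read for 20 min; IC50 derived logistically from inhibition of the fluorescence range.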
row,Compound,IC50 [nM]
1,COc1cn(Cc2ccccc2C(F)(F)F)c(Nc2cccc(Cl)c2C)nc1=O [Compound I-0294],250
2,Cc1cc(OC(F)F)c(C)cc1Nc1nc(=O)c(F)cn1Cc1cc(F)cc(F)c1 [Compound I-0836],2
3,COc1cn(Cc2cc(F)cc(F)c2)c(Nc2cccc(SC)c2C)nc1=O [Compound I-0550],2
4,COc1cn(Cc2ccc(F)cc2)c(Nc2cc3sc(C)nc3cc2C)nc1=O [Compound I-0561],19

# Same assay, conditions: 1321N1 cells stably expressing human P2X7 receptor; BzATP stimulation, Yo-Pro uptake; read-out: IC50 (antagonistic activity for the human P2X7 receptor), class symbol
row,Compound,IC50 [nM]
1,COc1cn(Cc2c(F)cccc2F)c(Nc2cccc(Cl)c2C)nc1=O [Compound I-0311],100 to 500
2,CCOc1cc(C)c(Nc2nc(=O)c(OC)cn2Cc2ccccc2)cc1C [Compound I-0206],10 to 100
3,COc1cn(Cc2ccccc2)c(Nc2cc(C)cc3[nH]ccc23)nc1=O [Compound I-0390],10 to 100
4,COc1cn(Cc2cc(F)cc(F)c2)c(Nc2cccc(OC(F)F)c2C)nc1=O [Compound I-0504],< 10
5,CCc1cc(OC)ccc1Nc1nc(=O)c(OC)cn1Cc1ccc(F)c(F)c1 [Compound I-0264],< 10
6,Cc1c(Cl)cccc1Nc1nc(=O)c(Br)cn1Cc1ccccc1 [Compound I-0027],10 to 100
7,COc1cn(Cc2ccc(F)c(F)c2)c(Nc2cc(Cl)c(Cl)cc2C)nc1=O [Compound I-0518],10 to 100
8,COc1cc(C)c(Nc2nc(=O)c(F)cn2Cc2ccc(F)cc2)cc1OC [Compound I-0209],< 10
9,COc1cn(Cc2cc(C)cc(F)c2)c(Nc2cccc(Cl)c2C)nc1=O [Compound I-0466],10 to 100
10,COc1cn(Cc2cccc(F)c2)c(Nc2cc(C)c(Cl)cc2C)nc1=O [Compound I-0168],< 10
11,COc1cc(C)c(Nc2nc(=O)c(Cl)cn2Cc2ccccc2)cc1OC [Compound I-0310],10 to 100
12,COc1cn(Cc2ccc(F)c(Cl)c2)c(Nc2cc(OCC(F)(F)F)ccc2C)nc1=O [Compound I-0497],10 to 100
13,Cc1c(Cl)cccc1Nc1nc(=O)c(C(F)(F)F)cn1Cc1ccccc1 [Compound I-0216],100 to 500
14,COc1cn(Cc2cc(F)cc(F)c2)c(Nc2ccc(Cl)cc2C)nc1=O [Compound I-0563],10 to 100
15,COc1cn(Cc2ccc(F)c(Cl)c2)c(Nc2cccc(C)c2Cl)nc1=O [Compound I-0483],< 10
16,COc1cc(C)cc(Nc2nc(=O)c(OC)cn2Cc2ccc(F)c(Cl)c2)c1C [Compound I-0424],< 10

row,Compound,IC50 [nM]
1,CCOc1ccc(C)c(Nc2nc(=O)c(OC)cn2Cc2cccc(Cl)c2)c1 [Compound I-0456],10 to 100
2,COc1cc(C)c(Nc2nc(=O)c(Cl)cn2Cc2cccc(Cl)c2)cc1OC [Compound I-0346],< 10
3,COc1cn(Cc2cccc(Cl)c2)c(Nc2cc(C)c(Cl)cc2C)nc1=O [Compound I-0172],10 to 100
4,Cc1c(Cl)cccc1Nc1nc(=O)c(CC(=O)O)cn1Cc1ccccc1 [Compound I-0025],500 to 1000
5,COc1cn(Cc2cccc(Cl)c2)c(Nc2cc(C)c(C)cc2C)nc1=O [Compound I-0165],< 10
6,COc1cn(Cc2ccc(F)c(Cl)c2)c(Nc2cc(-c3nnco3)ccc2C)nc1=O [Compound I-0379],< 10
7,COc1cn(Cc2ccccc2)c(Nc2cc(-c3nnco3)ccc2C)nc1=O [Compound I-0240],10 to 100
8,COc1cn(Cc2ccccc2)c(Nc2cc([N+](=O)[O-])ccc2C)nc1=O [Compound I-0155],500 to 1000
9,COc1cn(Cc2ccccc2)c(Nc2cccc(CO)c2C)nc1=O [Compound I-0110],100 to 500
10,COc1cn(Cc2ccccc2)c(Nc2cc(C)ccc2Cl)nc1=O [Compound I-0146],10 to 100
11,COc1cn(Cc2ccccc2)c(Nc2cc(C)c(C)cc2C)nc1=O [Compound I-0357],500 to 1000
12,COc1cn(Cc2cc(F)cc(Cl)c2)c(Nc2cc(CO)c(C)cc2C)nc1=O [Compound I-0578],< 10
13,COc1cn(Cc2ccc(F)c(F)c2)c(Nc2cc3[nH]ncc3cc2C)nc1=O [Compound I-0491],< 10
14,COc1cn(Cc2cc(F)cc(F)c2)c(Nc2cc(N3CCCS3(=O)=O)ccc2C)nc1=O [Compound I-0552],10 to 100
15,Cc1c(Cl)cccc1Nc1nc(=O)c(C(=O)O)cn1Cc1ccccc1 [Compound I-0018],100 to 500

# Same assay, conditions: antagonistic activity for the human P2X7 receptor; read-out: IC50
row,Compound,IC50 [nM]
1,COc1cn(Cc2ccc(F)c(F)c2)c(Nc2cc(-c3ncco3)ccc2C)nc1=O [Compound I-0604],< 10
2,COc1cn(Cc2cc(F)cc(F)c2)c(Nc2ccc(OC(F)(F)F)cc2C)nc1=O [Compound I-0629],10 to 100
3,COc1ccc(Nc2nc(=O)c(C)cn2Cc2cc(F)c(F)c(F)c2)c(C)c1 [Compound I-1154],< 10
4,COc1cn(Cc2ccccc2)c(Nc2cc(-c3cccn(C)c3=O)c(F)cc2C)nc1=O [Compound I-0590],10 to 100
5,COc1cn(Cc2ccc(F)c(F)c2)c(Nc2cc(Cl)c(F)cc2C)nc1=O [Compound I-0810],10 to 100
6,CCOc1cc(Nc2nc(=O)c(OC)cn2Cc2cc(F)cc(Cl)c2)c(C)cc1C [Compound I-0789],< 10
7,C=C(C)c1ccc(C)c(Nc2nc(=O)c(OC)cn2Cc2ccc(F)c(Cl)c2)c1 [Compound I-0723],10 to 100
8,COCc1cccc(Nc2nc(=O)c(F)cn2Cc2cc(F)c(F)c(F)c2)c1C [Compound I-1178],< 10
9,Cc1c(Nc2nc(=O)c(F)cn2Cc2cc(F)c(F)c(F)c2)ccc2[nH]ccc12 [Compound I-1120],< 10
10,Cc1cc2c(cc1Nc1nc(=O)c(F)cn1Cc1cc(F)cc(F)c1)CCO2 [Compound I-1001],< 10
11,COc1cc(C)c(Nc2nc(=O)c(F)cn2Cc2cc(F)c(F)c(F)c2)cc1C(C)C [Compound I-1070],10 to 100
12,CCOc1ccc(Nc2nc(=O)c(OC)cn2Cc2ccccc2)c(C)c1 [Compound I-0676],100 to 500
13,Cc1cc(C)c(OC(F)F)cc1Nc1nc(=O)c(F)cn1Cc1cc(F)c(F)c(F)c1 [Compound I-1230],< 10
14,COc1ccc(Nc2nc(=O)cnn2Cc2ccccc2)c(C)c1 [Compound I-1276],10 to 100
15,COc1cn(Cc2cc(F)cc(F)c2)c(Nc2cccc3c(=O)n(C)ccc23)nc1=O [Compound I-0905],100 to 500
16,CCOc1cc(Nc2nc(=O)c(OC)cn2Cc2cc(F)c(F)c(F)c2)c(C)cc1C [Compound I-0777],< 10
17,COCc1cn(Cc2cc(F)c(F)c(F)c2)c(Nc2cc(C)cc3[nH]ccc23)nc1=O [Compound I-1155],< 10
18,COc1cc(C)cc(Nc2nc(=O)c(OC)cn2Cc2cc(F)c(F)c(F)c2)c1C [Compound I-0601],< 10
19,COCc1cc(=O)nc(Nc2cc(OC)c(OC)cc2C)n1Cc1cc(F)c(F)c(F)c1 [Compound I-1147],10 to 100
20,CCOc1ccc(F)c(Nc2nc(=O)c(F)cn2Cc2cc(F)c(F)c(F)c2)c1 [Compound I-1215],< 10
21,COc1cn(Cc2cc(F)cc(F)c2)c(Nc2cccc3occc23)nc1=O [Compound I-0640],10 to 100
22,COc1cn(Cc2ccccc2)c(Nc2cc(-c3cccn(C)c3=O)ccc2C)nc1=O [Compound I-0587],10 to 100

row,Compound,IC50 [nM]
1,Cc1cc(N(C)C)ccc1Nc1nc(=O)c(F)cn1Cc1cc(F)cc(F)c1 [Compound I-1241],< 10
2,CCOc1cc(Nc2nc(=O)c(OC)cn2Cc2cc(F)cc(F)c2)c(C)cc1F [Compound I-0920],10 to 100
3,Cc1cc(OC(F)F)ccc1Nc1nc(=O)c(F)cn1Cc1ccc(F)c(Cl)c1 [Compound I-1063],10 to 100
4,COc1ccc(Nc2nc(=O)c(OC)cn2Cc2ccc(F)cc2)c(C)c1 [Compound I-0739],10 to 100
5,Cc1c(CO)cccc1Nc1nc(=O)c(F)cn1Cc1cc(F)c(F)c(F)c1 [Compound I-1177],< 10
6,CCOC(=O)c1cn(Cc2cc(F)c(F)c(F)c2)c(Nc2ccc(OC)cc2C)nc1=O [Compound I-1080],10 to 100
7,Cc1cn(Cc2cc(F)c(F)c(F)c2)c(Nc2ccc3[nH]ccc3c2C)nc1=O [Compound I-1165],< 10
8,CCOc1cc(Nc2nc(=O)c(OC)cn2Cc2cccc(Cl)c2)c(C)cc1C [Compound I-0791],< 10
9,COc1cn(Cc2ccc(F)c(F)c2)c(Nc2cccc3c(=O)n(C)ccc23)nc1=O [Compound I-0903],10 to 100
10,COc1cn(Cc2ccccc2)c(Nc2cc(C)c(F)cc2C)cc1=O [Compound I-0946],500 to 1000
11,COc1cc(C)c(Nc2nc(=O)c(F)cn2Cc2cc(F)c(F)c(F)c2)cc1C [Compound I-1180],< 10
12,Cc1cn(Cc2ccc(F)c(F)c2)c(Nc2ccc3[nH]ccc3c2C)nc1=O [Compound I-1168],< 10
13,COc1cn(Cc2ccc(F)c(Cl)c2)c(Nc2cc3c(cc2C)OCC3)nc1=O [Compound I-0864],< 10
14,COc1cn(Cc2ccccc2)c(Nc2cccc(C)c2F)nc1=O [Compound I-0762],100 to 500
15,CN=c1nc(Nc2cc(C)ccc2C)n(Cc2cc(F)c(F)c(F)c2)cc1F [Compound I-1289],100 to 500
16,COCc1cn(Cc2cc(F)c(F)c(F)c2)c(Nc2cc(C)c(OC)cc2C)nc1=O [Compound I-1156],< 10
17,COc1cn(Cc2cc(F)cc(F)c2)c(Nc2cc(-c3cnccn3)ccc2C)nc1=O [Compound I-0684],10 to 100
18,CCc1cc(Br)ccc1Nc1nc(=O)c(OC)cn1Cc1ccc(F)c(Cl)c1 [Compound I-0631],10 to 100
19,COc1cn(Cc2cc(F)c(F)c(F)c2)c(Nc2cc(C)c(F)cc2C)nc1=O [Compound I-0712],< 10
20,COc1cn(Cc2cc(F)cc(Cl)c2)c(Nc2cc(OC(F)F)c(C)cc2C)nc1=O [Compound I-0877],10 to 100
21,COCCOc1ccc(C)c(Nc2nc(=O)c(F)cn2Cc2cc(F)c(F)c(F)c2)c1 [Compound I-1179],< 10
22,COc1cc(Nc2nc(=O)c(F)cn2Cc2ccc(F)c(F)c2)c(C)cc1F [Compound I-1052],< 10
